One assay deals with KRAS WT (Homo sapiens (Human), UniProt P01116+P62937). As to the kind of experiment: Ras-Raf (BRAF RBD) disruption / FRET / MOA assay, KRAS WT. Type of assay: biochemical. The note with it: read-out: IC50* KRAS WT FRET data. In short, it runs like this: (§1)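 Ras:RAF disruption was scored as a fall in TR-FRET ratio relative to DMSO. Compound ranged in 3-fold steps over 10 points from 30 μM final; incubation ran 3 h at 25° C, detection antibodies a further 1.5 h. Reported as IC50.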

Another assay has as its target KRAS G12D (Homo sapiens (Human), UniProt P01116+P62937, G12D). The assay is described as follows: Ras-Raf (BRAF RBD) disruption / FRET / MOA assay, KRAS G12D. Type of assay: biochemical. The note with it: Ras-Raf disruption/FRET/MOA assay; class symbols; read-out: KRAS G12D FRET data IC50. In short, it runs like this: as §1
Another assay concerns the target NRAS Q61R (Homo sapiens (Human), UniProt P01111+P62937, Q61R). As to the kind of experiment: Ras-Raf (BRAF RBD) disruption / FRET / MOA assay, NRAS Q61R. Type of assay: biochemical. The note with it: NRAS Q61R; Ras-Raf disruption/FRET/MOA assay; read-out: IC50* NRAS Q61R FRET data. Summed up: (§2)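 TR-FRET disruption of nucleotide-loaded Ras binding to BRAF RBD via compound-driven ternary complex with cyclophilin A. Compound as 10-point 3-fold series from 30 μM final, 3 h at 25° C, then anti-His Eu-W1024 (10 nM) and anti-GST allophycocyanin (50 nM) for 1.5 h. IC50 from decreased FRET ratio versus DMSO.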

The next assay addresses KRAS G12V (Homo sapiens (Human), UniProt P01116+P62937, G12V). As to the kind of experiment: Ras-Raf (BRAF RBD) disruption / FRET / MOA assay, KRAS G12V. Type of assay: biochemical. The note with it: read-out: IC50* KRAS G12V FRET data. In short, it runs like this: as §1
The subject of the next assay is NCI-H358 (K-Ras G12C). As to the kind of experiment: CellTiter-Glo cell viability assay, NCI-H358. Type of assay: cell-based, human. To be noted: Homo sapiens, NCI-H358, 120 h, NCI-H358, 5-day treatment; class symbols; read-out: Additional H358 Cell Viability assay data (K-Ras G12C, IC50). Summed up: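 Luminescent viability readout on day 5 after direct compound addition to plated cells; plates sat ~30 min at room temperature before reading. Values expressed as percent of mean DMSO signal, curves fit with a four-parameter logistic model.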

The target in the next assay is NRAS WT (Homo sapiens (Human), UniProt P01111+P62937). As to the kind of experiment: Ras-Raf (BRAF RBD) disruption / FRET / MOA assay, NRAS WT. The note with it: read-out: IC50* NRAS WT FRET data. Type of assay: biochemical. In short, it runs like this:
as §2

The target of the next assay is K-Ras G12C (Homo sapiens (Human), UniProt P01116+P62937, G12C). The assay is described as follows: Ras-Raf (BRAF RBD) disruption / FRET / MOA assay, KRAS G12C. Type of assay: biochemical. To be noted: KRAS G12C; Ras-Raf disruption/FRET/MOA assay; read-out: IC50* KRAS G12C FRET data. In short, it runs like this:
as §1

The next assay addresses KRAS Q61H (Homo sapiens (Human), UniProt P01116+P62937, Q61H). As to the kind of experiment: Ras-Raf (BRAF RBD) disruption / FRET / MOA assay, KRAS Q61H. Type of assay: biochemical. The note with it: Ras-Raf disruption/FRET/MOA assay; class symbols; read-out: KRAS Q61H FRET data IC50. In short, it runs like this:
as §2

Another assay addresses KRAS G13D (Homo sapiens (Human), UniProt P01116+P62937, G13D). The assay is described as follows: Ras-Raf (BRAF RBD) disruption / FRET / MOA assay, KRAS G13D. Type of assay: biochemical. To be noted: read-out: IC50* KRAS G13D FRET data. Summed up:
as §1

Another assay deals with K-Ras G13C (Homo sapiens (Human), UniProt P01116+P62937, G13C). The assay is described as follows: Ras-Raf (BRAF RBD) disruption / FRET / MOA assay, KRAS G13C. Type of assay: biochemical. The note with it: KRAS G13C; Ras-Raf disruption/FRET/MOA assay; read-out: IC50* KRAS G13C FRET data. Summed up:
as §1

Sequence of KRAS G13D (P01116-2 other isoform, or with tags, fused parts or gaps G13D): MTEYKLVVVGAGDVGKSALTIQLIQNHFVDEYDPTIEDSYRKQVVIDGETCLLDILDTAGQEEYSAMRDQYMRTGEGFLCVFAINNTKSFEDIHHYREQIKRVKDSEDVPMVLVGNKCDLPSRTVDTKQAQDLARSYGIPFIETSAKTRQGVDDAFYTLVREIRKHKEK
Sequence of KRAS G13D (P62937 whole entry): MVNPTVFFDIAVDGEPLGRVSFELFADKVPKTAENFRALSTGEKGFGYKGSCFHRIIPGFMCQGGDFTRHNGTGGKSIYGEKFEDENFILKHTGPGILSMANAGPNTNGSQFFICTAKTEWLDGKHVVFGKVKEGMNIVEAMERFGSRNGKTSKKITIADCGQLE
Sequence of KRAS G12D (P01116-2 other isoform, or with tags, fused parts or gaps G12D): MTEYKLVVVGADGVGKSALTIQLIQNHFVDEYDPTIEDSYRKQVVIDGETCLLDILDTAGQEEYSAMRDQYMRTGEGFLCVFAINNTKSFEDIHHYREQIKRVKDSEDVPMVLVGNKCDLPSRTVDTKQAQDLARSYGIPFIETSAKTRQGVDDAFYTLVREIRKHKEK
Sequence of KRAS G12D (P62937 whole entry): as the sequence (P62937 whole entry) above
Sequence of NRAS Q61R (P01111 whole entry Q61R): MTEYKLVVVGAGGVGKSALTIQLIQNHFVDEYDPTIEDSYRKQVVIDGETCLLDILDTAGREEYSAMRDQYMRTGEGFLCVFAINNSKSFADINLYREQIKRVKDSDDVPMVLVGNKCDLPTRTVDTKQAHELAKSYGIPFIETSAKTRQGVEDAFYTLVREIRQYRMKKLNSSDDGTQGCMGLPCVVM
Sequence of NRAS Q61R (P62937 whole entry): as the sequence (P62937 whole entry) above
Sequence of NRAS WT (P01111 whole entry): as the sequence (P01111 whole entry Q61R) above, with R61Q counted along it
Sequence of NRAS WT (P62937 whole entry): as the sequence (P62937 whole entry) above
Sequence of KRAS Q61H (P01116-2 other isoform, or with tags, fused parts or gaps Q61H): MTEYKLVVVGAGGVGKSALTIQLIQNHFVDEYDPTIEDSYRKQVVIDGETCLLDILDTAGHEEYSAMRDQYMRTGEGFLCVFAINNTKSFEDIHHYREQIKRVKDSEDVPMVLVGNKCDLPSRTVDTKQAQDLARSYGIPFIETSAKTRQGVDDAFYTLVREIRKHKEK
Sequence of KRAS Q61H (P62937 whole entry): as the sequence (P62937 whole entry) above
Sequence of K-Ras G13C (P01116-2 other isoform, or with tags, fused parts or gaps G13C): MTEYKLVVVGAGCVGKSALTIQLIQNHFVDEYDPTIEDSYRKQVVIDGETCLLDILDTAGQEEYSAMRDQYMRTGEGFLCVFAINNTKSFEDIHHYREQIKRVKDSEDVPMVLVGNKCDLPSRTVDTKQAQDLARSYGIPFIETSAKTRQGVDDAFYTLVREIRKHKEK
Sequence of K-Ras G13C (P62937 whole entry): as the sequence (P62937 whole entry) above
Sequence of KRAS G12V (P01116-2 other isoform, or with tags, fused parts or gaps G12V): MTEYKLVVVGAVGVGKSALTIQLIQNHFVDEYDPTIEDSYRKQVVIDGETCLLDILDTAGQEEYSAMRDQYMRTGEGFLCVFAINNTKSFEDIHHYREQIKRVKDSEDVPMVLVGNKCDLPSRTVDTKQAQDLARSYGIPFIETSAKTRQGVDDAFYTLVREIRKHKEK
Sequence of KRAS G12V (P62937 whole entry): as the sequence (P62937 whole entry) above
Sequence of K-Ras G12C (P01116-2 other isoform, or with tags, fused parts or gaps G12C): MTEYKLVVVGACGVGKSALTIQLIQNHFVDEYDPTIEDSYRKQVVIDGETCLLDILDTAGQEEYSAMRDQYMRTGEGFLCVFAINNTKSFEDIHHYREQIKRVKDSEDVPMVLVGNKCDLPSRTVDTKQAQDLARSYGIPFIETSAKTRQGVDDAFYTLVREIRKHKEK
Sequence of K-Ras G12C (P62937 whole entry): as the sequence (P62937 whole entry) above
Sequence of KRAS WT (P01116-2 other isoform, or with tags, fused parts or gaps): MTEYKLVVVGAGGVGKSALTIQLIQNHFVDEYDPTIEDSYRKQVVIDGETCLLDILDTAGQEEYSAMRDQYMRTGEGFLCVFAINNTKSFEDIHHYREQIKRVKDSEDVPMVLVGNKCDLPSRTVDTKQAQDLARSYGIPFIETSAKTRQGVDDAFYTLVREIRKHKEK
Sequence of KRAS WT (P62937 whole entry): as the sequence (P62937 whole entry) above

Broadly, the IC50 is the concentration that inhibits the measured activity by half. In the case of `CCn1c(-c2cccnc2[C@H](C)OC)c2c3cc(ccc31)-c1csc(n1)C[C@H](NC(=O)[C@H](C(C)C)N(C)C(=O)N1CCC3(CC1)CN(C(=O)/C=C/CN(C)C)C3)C(=O)N1CCC[C@H](N1)C(=O)OCC(C)(C)C2` (atropisomer, axis not shown) [Example A650], the IC50 on KRAS WT was 100 to 1000 nM; at KRAS G12D, 100 to 1000 nM; at NRAS Q61R, 100 to 1000 nM; at KRAS G12V, 100 to 1000 nM; in the assay on NCI-H358 (K-Ras G12C), 10 to 100 nM; on NRAS WT, 100 to 1000 nM. Further, the IC50 at K-Ras G12C was in the range of 10 to 100 nM; on KRAS Q61H it was 10 to 100 nM; at KRAS G13D, 100 to 1000 nM; at K-Ras G13C it was 10 to 100 nM.

With `CCn1c(-c2cccnc2[C@H](C)OC)c2c3cc(ccc31)-c1csc(n1)C[C@H](NC(=O)[C@H](C(C)C)N(C)C(=O)N1CCC13CN(C(=O)C#CC(C)(C)N(C)C)C3)C(=O)N1CCC[C@H](N1)C(=O)OCC(C)(C)C2` (atropisomer, axis not shown) [Example A656], the IC50 on KRAS WT was in the range of 100 to 1000 nM; on KRAS G12D it was 1000 to 10000 nM; at NRAS Q61R, 100 to 1000 nM; on KRAS G12V, 1000 to 10000 nM; with NCI-H358 (K-Ras G12C), 10 to 100 nM; on NRAS WT, 100 to 1000 nM. For the same compound, the IC50 at K-Ras G12C was 100 to 1000 nM; on KRAS Q61H, 10 to 100 nM; at KRAS G13D, 1000 to 10000 nM; on K-Ras G13C, 1000 to 10000 nM.

As to `CO[C@@H](C)c1ncccc1-c1c2c3cc(ccc3n1CC(F)(F)F)-c1csc(n1)C[C@H](NC(=O)[C@H](C(C)C)N(C)C(=O)N1CCN(C(=O)/C=C/CN(C)C)C3(CC3)C1)C(=O)N1CCC[C@H](N1)C(=O)OCC(C)(C)C2` (atropisomer, axis not shown) [Example A664], the IC50 on KRAS WT fell in the range of 10 to 100 nM; at KRAS G12D it was 10 to 100 nM; at NRAS Q61R it was 10 to 100 nM; on KRAS G12V it was 100 to 1000 nM; in the assay on NCI-H358 (K-Ras G12C) it was 10 to 100 nM; at NRAS WT, 10 to 100 nM. Further, the IC50 at K-Ras G12C, at KRAS Q61H, at KRAS G13D and at K-Ras G13C was 10 to 100 nM in each case.

Consider `C=CC(=O)N1CC(N2CCN(C(=O)N(C)[C@H](C(=O)N[C@H]3Cc4nc(cs4)-c4ccc5c(c4)c(c(-c4cccnc4[C@H](C)OC)n5CC)CC(C)(C)COC(=O)[C@@H]4CCCN(N4)C3=O)C(C)C)CC2)C1` (atropisomer, axis not shown) [Example A668], for which the IC50 at KRAS WT lay within 100 to 1000 nM; on KRAS G12D, 1000 to 10000 nM; at NRAS Q61R it was 100 to 1000 nM; on KRAS G12V, 100 to 1000 nM; in the assay on NCI-H358 (K-Ras G12C), 10 to 100 nM; at NRAS WT, 100 to 1000 nM. Also, the concentration for half-maximal inhibition (IC50) on K-Ras G12C was 10 to 100 nM; on KRAS Q61H, 10 to 100 nM; at KRAS G13D, 1000 to 10000 nM; at K-Ras G13C it was 10 to 100 nM.

As to `CO[C@@H](C)c1ncccc1-c1c2c3cc(ccc3n1CC(F)(F)F)-c1nc(co1)C[C@H](NC(=O)[C@@H](COC1CN(C(=O)C#CC(C)(C)N(C)C)C1)C(C)C)C(=O)N1CCC[C@H](N1)C(=O)OCC(C)(C)C2` (atropisomer, axis not shown) [Example A674], the IC50 was more than 10000 nM on KRAS WT; more than 10000 nM on KRAS G12D; more than 10000 nM on NRAS Q61R; more than 10000 nM at KRAS G12V; less than 10 nM in the assay on NCI-H358 (K-Ras G12C); more than 10000 nM on NRAS WT. For the same compound, the IC50 was 10 to 100 nM on K-Ras G12C, 1000 to 10000 nM on KRAS Q61H, more than 10000 nM at KRAS G13D and 1000 to 10000 nM on K-Ras G13C.

Consider `C=CC(=O)N1CC[C@@]2(COCCN2C(=O)N(C)[C@H](C(=O)N[C@H]2Cc3nc(cs3)-c3ccc4c(c3)c(c(-c3cccnc3[C@H](C)OC)n4CC)CC(C)(C)COC(=O)[C@@H]3CCCN(N3)C2=O)C(C)C)C1` (atropisomer, axis not shown) [Example A677], for which the concentration for half-maximal inhibition (IC50) on KRAS WT is 100 to 1000 nM; on KRAS G12D it was 1000 to 10000 nM; at NRAS Q61R, 100 to 1000 nM; at KRAS G12V, 1000 to 10000 nM; in the assay with NCI-H358 (K-Ras G12C) it was less than 10 nM; at NRAS WT, 100 to 1000 nM. The IC50 was in the range of 100 to 1000 nM on K-Ras G12C, 100 to 1000 nM at KRAS Q61H, 1000 to 10000 nM on KRAS G13D and 1000 to 10000 nM at K-Ras G13C.

Source of the values: US11566007B2, “Ras inhibitors” (Revolution Medicines, Inc., priority 2019, dated 2023).
